In US8889711B2, “Pyrazolopyridine derivatives as anticancer agent” (Pierre Fabre Medicament, priority 2009, dated 2014):

What follows are compounds tested on karpas 299 cells (assay: Measurement of inhibition of cell proliferation (Karpas), ATPlite). Details: 72 hours.
Type: cell-based
Protocol: Measurement of Inhibition of Cell Proliferation (Karpas):
The antiproliferative activities of the compounds were measured using the ATPlite technique (Perkin Elmer).
The non-adhering cells (karpas 299) are seeded in 96-well plates (300 000 cells/ml) on Day 1 at a concentration compatible with logarithmic growth for 72 hours required for evaluation of the compounds. All the cells are treated on Day 1, then placed in an incubator at 37° C. under 5% CO2 atmosphere. Cell viability is evaluated on Day 4 by assay of released ATP, characteristic of viable cells. The IC50 values are determined by non-linear regression on the basis of a sigmoid model of dose/response relationship, Hill's slope coefficient being left variable, performed using GraphPad software sequence with the supplied algorithm.

IC50 [nM] | SMILES
1000 to 10000 | Cc1n[nH]c2nc(-c3ccc(O)cc3F)c(C#N)c(-c3ccc(N4CCNCC4)cc3)c12 [Compound 182]

Same assay, conditions: Homo sapiens, KARPAS-299, 72 h

SMILES | IC50 [nM]
Cc1n[nH]c2nc(-c3ccc(O)cc3F)c(C#N)c(-c3ccc(N4CC[C@@H](N)C4)o3)c12 [Compound 122] | 1000 to 10000
Cc1n[nH]c2nc(-c3ccc(O)cc3F)c(C#N)c(-c3ccc(N4CCOCC4)o3)c12 [Compound 171] | 100 to 1000
Cc1n[nH]c2nc(-c3cc(Br)c(O)c(Br)c3F)c(C#N)c(-c3ccco3)c12 [Compound 90] | > 10000
Cc1n[nH]c2nc(-c3ccc(O)c(F)c3F)c(C#N)c(-c3ccc(N4CCNCC4)cc3)c12 [Compound 277] | > 10000
Cc1c(C#N)c(-c2c(F)ccc(F)c2F)nc2[nH]nc(-c3ccc(N4CCNCC4)cc3)c12 [Compound 248] | 1000 to 10000
Cc1c(C#N)c(-c2ccc(O)cc2F)nc2[nH]nc(N)c12 [Compound 114] | 1000 to 10000
Cc1n[nH]c2nc(-c3ccc(O)cc3F)c(C#N)c(-c3ccc(N4CCNCC4)s3)c12 [Compound 204] | 100 to 1000
N#Cc1c(-c2ccc(O)cc2F)nc2[nH]nc(N)c2c1-c1ccc(N2CC3CNCC3C2)o1 (stereo not shown) [Compound 164] | > 10000
Cc1n[nH]c2nc(-c3ccc(O)cc3F)c(C#N)c(-c3ccc(N4CCC(CN)C4)o3)c12 (stereo not shown) [Compound 163] | 1000 to 10000
Cc1n[nH]c2nc(-c3ccc(O)cc3F)c(C#N)c(-c3ccc(N4CCC(N5CCCC5)CC4)o3)c12 [Compound 162] | 100 to 1000
Cc1n[nH]c2cc(-c3ccc(O)cc3F)c(C#N)c(-c3ccc(CN)o3)c12 [Compound 80] | 1000 to 10000
N#Cc1c(-c2cscn2)nc2[nH]nc(-c3cccs3)c2c1-c1ccc(N2CCNCC2)cc1 [Compound 276] | 1000 to 10000
Cc1cc(-c2n[nH]c3nc(-c4ccc(O)cc4F)c(C#N)c(C)c23)no1 [Compound 120] | 1000 to 10000
N#Cc1c(-c2ccc(OC(=O)c3ccccc3)cc2F)nc2[nH]nc(-c3cccs3)c2c1-c1ccc(N2CCNCC2)cc1 [Compound 297] | 100 to 1000
N#Cc1c(-c2cc3cc[nH]c3cc2F)nc2[nH]nc(N)c2c1-c1ccc(N2CCNCC2)cc1 [Compound 233] | > 10000

Other lines, results leading:

IC50 [nM] | SMILES
1000 to 10000 | N#Cc1c(-c2ccc(O)cc2F)nc2[nH]nc(N)c2c1-c1ccc(OCCCN2CCCCC2)cc1 [Compound 203]
100 to 1000 | COC(=O)c1c(-c2ccc(O)cc2)nc2[nH]nc(C)c2c1-c1ccc(C)o1 [Compound 215]
100 to 1000 | Cc1ccc(-c2c(C#N)c(-c3ccc(O)cc3F)nc3[nH]ncc23)o1 [Compound 92]
100 to 1000 | Cc1n[nH]c2nc(-c3ccc(O)cc3F)c(C#N)c(-c3ccc(OCCCN(C)C)cc3)c12 [Compound 178]
1000 to 10000 | CN(C)CCOc1ccc(-c2c(C#N)c(-c3ccc(O)cc3F)nc3[nH]nc(N)c23)cc1 [Compound 210]
1000 to 10000 | N#Cc1c(-c2ccc(O)cc2F)nc2[nH]ncc2c1-c1ccc(N2CCOCC2)o1 [Compound 86]
1000 to 10000 | N#Cc1c(-c2ccc(O)cc2)nc2[nH]ncc2c1-c1ccc(CN)cc1 [Compound 53]
> 10000 | N#Cc1c(-c2ccc(O)cc2F)nc2[nH]nc(N)c2c1-c1ccc(OCCCN2CCNCC2)cc1 [Compound 211]
100 to 1000 | N#Cc1c(-c2ccc(O)cc2F)nc2[nH]nc(-c3ccccc3)c2c1-c1ccc(N2CCNCC2)cc1 [Compound 206]
100 to 1000 | N#Cc1c(-c2ccc(O)cc2F)nc2[nH]nc(-c3cccs3)c2c1-c1ccc(N2CCNCC2)cc1 [Compound 196]

Each compound was assayed against ALK kinase (Homo sapiens, UniProt Q9UM73) (assay: Test to measure ALK kinase inhibition (GST-PLCγ1 substrate, anti-phosphotyrosine ELISA, luminescence)). Details: ALK kinase 180 ng/ml, 250 μM ATP, 30 minutes at 30° C.
Type: biochemical
Protocol: Test to Measure ALK Kinase Inhibition
A ViewPlate (Packard) is incubated with the GST-PLCγ1 substrate (purified recombinant form) at 0.1 mg/ml in phosphate buffer (PBS pH 7.4)(100 μl/well) for one hour under shaking. The plate is then saturated with a blocking solution containing 5% bovine serum albumin (BSA) (SIGMA) in PBS buffer pH 7.4.
After adding the inhibitor at the desired final concentration (usual range of 30 μM to 10 nM), the reaction is conducted by adding the ALK kinase at 180 ng/ml in 13 mM Tris reaction buffer pH 7.5 (SIGMA); 6.5 mM MgCl2 (MERCK); 0.65 mM DiThioThreitol (DTT) (ACROS); 39 mM sodium β-glycerophosphate (TCI); 0.65 mM sodium orthovanadate (SIGMA) and 250 μM ATP (SIGMA). Incubation is carried out for 30 minutes at 30° C. under shaking.
After three washings under shaking in 0.1% PBS/Tween-20 buffer (SIGMA), an anti-phosphotyrosine antibody coupled with HRP (UBI) diluted to 1/1000th in PBS/BSA buffer 5 mg/ml, is incubated for one hour under shaking. After three further washings in 0.1% PBS/Tween-20, the wells are incubated two minutes with 100 μl of SuperSignal ELISA mixture (PIERCE).
The signal is read in luminescent mode using a luminometer (MOLECULAR DEVICES SpectraMax M5e).

ALK kinase, sequence (Q9UM73 19-1620): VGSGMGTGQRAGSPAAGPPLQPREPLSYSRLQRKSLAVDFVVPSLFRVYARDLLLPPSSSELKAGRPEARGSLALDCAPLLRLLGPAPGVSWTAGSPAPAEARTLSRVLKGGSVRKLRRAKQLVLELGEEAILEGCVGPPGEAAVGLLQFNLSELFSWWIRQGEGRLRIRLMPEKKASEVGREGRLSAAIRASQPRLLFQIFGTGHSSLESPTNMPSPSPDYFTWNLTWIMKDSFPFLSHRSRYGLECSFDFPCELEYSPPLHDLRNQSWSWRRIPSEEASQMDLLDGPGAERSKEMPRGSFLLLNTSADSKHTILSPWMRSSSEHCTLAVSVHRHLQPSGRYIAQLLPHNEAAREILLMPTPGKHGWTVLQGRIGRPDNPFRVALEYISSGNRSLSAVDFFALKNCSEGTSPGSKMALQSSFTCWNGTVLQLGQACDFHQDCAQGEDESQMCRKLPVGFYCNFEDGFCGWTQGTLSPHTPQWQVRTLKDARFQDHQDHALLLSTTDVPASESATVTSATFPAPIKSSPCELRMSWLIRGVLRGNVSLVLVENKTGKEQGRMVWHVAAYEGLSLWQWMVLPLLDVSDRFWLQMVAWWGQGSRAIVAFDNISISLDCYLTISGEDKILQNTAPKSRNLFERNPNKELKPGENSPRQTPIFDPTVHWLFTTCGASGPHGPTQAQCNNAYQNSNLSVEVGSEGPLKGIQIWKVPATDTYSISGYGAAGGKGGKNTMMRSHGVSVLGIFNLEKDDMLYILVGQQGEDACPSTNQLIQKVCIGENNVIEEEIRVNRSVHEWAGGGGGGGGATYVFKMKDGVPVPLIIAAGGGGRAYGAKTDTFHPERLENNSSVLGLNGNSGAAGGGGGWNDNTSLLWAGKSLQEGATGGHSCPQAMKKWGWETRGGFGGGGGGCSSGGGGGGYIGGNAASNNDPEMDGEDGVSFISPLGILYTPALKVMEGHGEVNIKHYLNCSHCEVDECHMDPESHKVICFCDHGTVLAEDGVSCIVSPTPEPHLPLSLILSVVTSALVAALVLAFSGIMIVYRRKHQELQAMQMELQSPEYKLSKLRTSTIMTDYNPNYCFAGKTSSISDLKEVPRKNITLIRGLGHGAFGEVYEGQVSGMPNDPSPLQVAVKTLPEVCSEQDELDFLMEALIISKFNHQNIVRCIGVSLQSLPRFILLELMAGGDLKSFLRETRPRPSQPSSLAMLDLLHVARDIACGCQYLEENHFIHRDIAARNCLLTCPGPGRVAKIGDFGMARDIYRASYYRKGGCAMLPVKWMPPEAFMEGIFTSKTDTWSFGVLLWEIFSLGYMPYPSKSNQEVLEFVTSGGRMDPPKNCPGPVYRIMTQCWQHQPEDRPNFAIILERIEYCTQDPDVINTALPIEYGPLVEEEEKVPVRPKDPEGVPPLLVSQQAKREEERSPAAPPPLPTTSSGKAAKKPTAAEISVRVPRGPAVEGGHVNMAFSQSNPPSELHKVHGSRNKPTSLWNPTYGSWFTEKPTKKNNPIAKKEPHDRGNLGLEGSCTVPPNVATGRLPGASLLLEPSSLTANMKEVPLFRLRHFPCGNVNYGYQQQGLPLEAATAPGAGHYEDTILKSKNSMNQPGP

SMILES | IC50 [nM]
Cc1n[nH]c2nc(-c3ccc(O)cc3F)c(C#N)c(-c3ccc(N4CC[C@@H](N)C4)o3)c12 [Compound 122] | < 100
Cc1n[nH]c2nc(-c3ccc(O)cc3F)c(C#N)c(-c3ccc(N4CCOCC4)o3)c12 [Compound 171] | 100 to 1000
Cc1n[nH]c2nc(-c3cc(Br)c(O)c(Br)c3F)c(C#N)c(-c3ccco3)c12 [Compound 90] | 1000 to 10000
Cc1n[nH]c2nc(-c3ccc(O)c(F)c3F)c(C#N)c(-c3ccc(N4CCNCC4)cc3)c12 [Compound 277] | 100 to 1000
Cc1c(C#N)c(-c2c(F)ccc(F)c2F)nc2[nH]nc(-c3ccc(N4CCNCC4)cc3)c12 [Compound 248] | 1000 to 10000
Cc1c(C#N)c(-c2ccc(O)cc2F)nc2[nH]nc(N)c12 [Compound 114] | 100 to 1000
Cc1n[nH]c2nc(-c3ccc(O)cc3F)c(C#N)c(-c3ccc(N4CCNCC4)s3)c12 [Compound 204] | < 100
N#Cc1c(-c2ccc(O)cc2F)nc2[nH]nc(N)c2c1-c1ccc(N2CC3CNCC3C2)o1 (stereo not shown) [Compound 164] | 100 to 1000
Cc1n[nH]c2nc(-c3ccc(O)cc3F)c(C#N)c(-c3ccc(N4CCC(CN)C4)o3)c12 (stereo not shown) [Compound 163] | < 100
Cc1n[nH]c2nc(-c3ccc(O)cc3F)c(C#N)c(-c3ccc(N4CCC(N5CCCC5)CC4)o3)c12 [Compound 162] | < 100
Cc1n[nH]c2cc(-c3ccc(O)cc3F)c(C#N)c(-c3ccc(CN)o3)c12 [Compound 80] | 100 to 1000
N#Cc1c(-c2cscn2)nc2[nH]nc(-c3cccs3)c2c1-c1ccc(N2CCNCC2)cc1 [Compound 276] | > 10000
Cc1cc(-c2n[nH]c3nc(-c4ccc(O)cc4F)c(C#N)c(C)c23)no1 [Compound 120] | 100 to 1000
N#Cc1c(-c2ccc(OC(=O)c3ccccc3)cc2F)nc2[nH]nc(-c3cccs3)c2c1-c1ccc(N2CCNCC2)cc1 [Compound 297] | 100 to 1000
N#Cc1c(-c2cc3cc[nH]c3cc2F)nc2[nH]nc(N)c2c1-c1ccc(N2CCNCC2)cc1 [Compound 233] | 100 to 1000

Continued, values first:

IC50 [nM] | SMILES
100 to 1000 | N#Cc1c(-c2ccc(O)cc2F)nc2[nH]nc(N)c2c1-c1ccc(OCCCN2CCCCC2)cc1 [Compound 203]
< 100 | COC(=O)c1c(-c2ccc(O)cc2)nc2[nH]nc(C)c2c1-c1ccc(C)o1 [Compound 215]
< 100 | Cc1ccc(-c2c(C#N)c(-c3ccc(O)cc3F)nc3[nH]ncc23)o1 [Compound 92]
< 100 | Cc1n[nH]c2nc(-c3ccc(O)cc3F)c(C#N)c(-c3ccc(OCCCN(C)C)cc3)c12 [Compound 178]
100 to 1000 | CN(C)CCOc1ccc(-c2c(C#N)c(-c3ccc(O)cc3F)nc3[nH]nc(N)c23)cc1 [Compound 210]
< 100 | Cc1n[nH]c2nc(-c3ccc(O)cc3F)c(C#N)c(-c3ccc(N4CCNCC4)cc3)c12 [Compound 182]
< 100 | N#Cc1c(-c2ccc(O)cc2F)nc2[nH]ncc2c1-c1ccc(N2CCOCC2)o1 [Compound 86]
100 to 1000 | N#Cc1c(-c2ccc(O)cc2)nc2[nH]ncc2c1-c1ccc(CN)cc1 [Compound 53]
100 to 1000 | N#Cc1c(-c2ccc(O)cc2F)nc2[nH]nc(N)c2c1-c1ccc(OCCCN2CCNCC2)cc1 [Compound 211]
< 100 | N#Cc1c(-c2ccc(O)cc2F)nc2[nH]nc(-c3ccccc3)c2c1-c1ccc(N2CCNCC2)cc1 [Compound 206]
1000 to 10000 | N#Cc1c(-c2ccc(O)cc2F)nc2[nH]nc(-c3cccs3)c2c1-c1ccc(N2CCNCC2)cc1 [Compound 196]
